Results taken from patent US7323479B2, “Methods for treatment and management of brain cancer using 1-oxo-2-(2,6-dioxopiperidin-3-yl)-4-methylisoindoline” (Celgene Corporation, priority 2002, dated 2008).
Values belong to the molecule of their own block, whether it stands above or below them.

What was measured:
[1] = Pharmacokinetics of Actimid in relapsed/refractory multiple myeloma patients; format: in vivo, human; details: for AUC: AUC(0-τ); for Vd/F: Vz/f; for half-life: t½
Method: 4-(Amino)-2-(2,6-dioxo(3-piperidyl))-isoindoline-1,3-dione (Actimid™) was administered to patients with relapsed/refractory multiple myeloma. The study was conducted in compliance with Good Clinical Practices. Patients were at least 18 years old, had been diagnosed with multiple myeloma (with paraprotein in serum and/or urine), and were considered refractory to treatment after at least two cycles of treatment, or have relapsed after two cycles of treatment.
4-(Amino)-2-(2,6-dioxo(3-piperidyl))-isoindoline-1,3-dione is administered to patients at doses of 1, 2, 5, or 10 mg/day for up to four weeks; at each dose level, three patients are initially enrolled. Dosing occurs at approximately the same time each morning; all doses are administered in the fasted state (no eating for at least two hours prior to dosing and two hours after dosing). 4-(Amino)-2-(2,6-dioxo(3-piperidyl))-isoindoline-1,3-dione doses are administered in an ascending fashion such that patients in the first cohort receive the lowest dose of 4-(amino)-2-(2,6-dioxo(3-piperidyl))-isoindoline-1,3-dione (1 mg/day) and escalation to the next higher dose level occurs only following the establishment of safety and tolerability at the current dose. If one out of three patients at any dose level experience dose limiting toxicity (DLT), three additional patients are enrolled at that dose. If none of the three additional patients experience DLT, escalation to the next dose level occurs; dose escalations continue in a similar fashion until the MTD is established or the maximum daily dose (10 mg/day) is attained. However, if one of the three additional patients enrolled experiences DLT, the MTD has been reached. If two or more of the three additional patients enrolled experience DLT, the MTD is judged to have been exceeded and three additional patients are enrolled at the preceding dose level to confirm the MTD. Once the MTD has been identified, four additional patients are enrolled at that dose level so that a total of 10 patients is treated at the MTD.
Blood sampling for analysis of pharmacokinetic parameters is performed on Days 1 and 28 according to the following sampling schedule: pre-dose, 0.25, 0.5, 0.75, 1, 1.5, 2, 2.5, 3, 4, 6, 8, 10, 12, 18, and 24 hours post-dose. An additional blood sample is collected at each weekly visit for the determination of 4-(amino)-2-(2,6-dioxo(3-piperidyl))-isoindoline-1,3-dione levels. Total urine collections are also made with urine pooled according to the following time intervals post-dose: 0 to 4, 4 to 8, 8 to 12, and 12 to 24 hours. Safety assessments are made by monitoring adverse events, vital signs, ECGs, clinical laboratory evaluations (blood chemistry, hematology, lymphocyte phenotyping, and urinalysis), and physical examination at specific times during the study.

TNF-α, IL-1β, and IL-6 = test: LPS-stimulated production of pro-inflammatory cytokines by PBMC; format: cell-based
[2] = Phase 1 studies of Revimid in refractory or relapsed multiple myeloma: dose limiting toxicity; format: in vivo
Method: (§1) Patients were evaluated for adverse events at each visit and the severity of these events was graded according to the National Cancer Institute (NCI) Common Toxicity Criteria. Patients were discontinued if they experienced DLT (Grade 3 or greater non-hematological, or Grade 4 hematological toxicity).

[3] = Phase 1 study of Revimid in patients with solid tumors: dose limiting toxicity; format: in vivo; details: initial group of 20 patients, 5 escalated to 50 mg/day over 4 weeks
Method: Patients who, experienced clinical benefit were permitted to continue on treatment as Named Patients.
The study design dictates that at least 3 patients must be enrolled at a dose level and have completed 28 days of treatment prior to enrollment of patients at the next higher dose level. Patients in the first cohort began dosing at 5 mg/day of 3-(4-amino-1′-oxo-1,3-dihydro-isoindol-2-yl)-piperidine-2,6-dione. […]
If, at any given dose level in either study, one out of three patients experiences toxicity, three additional patients must be treated at that particular dose. If, however, two out of six patients experience DLT, the MTD is judged to have been exceeded. No further dose escalations are to occur and additional patients are to be enrolled at the previous dose level.

IL-10 = test: LPS-stimulated production of anti-inflammatory cytokine IL-10 by PBMC; format: cell-based
[4] = Phase 1 studies of Revimid in refractory or relapsed multiple myeloma: pharmacokinetics; format: in vivo
Method: as §1
Blood and urine samples were collected for analysis of pharmacokinetic parameters on Days 1 and 28. Blood samples were collected according to the following sampling schedule: pre-dose, 0.25, 0.5, 0.75, 1, 1.5, 2, 2.5, 3, 4, 6, 8, 10, 12, 18, and 24 hours post-dose. In addition, a blood sample was collected at each weekly clinic visit for 3-(4-amino-1-oxo-1,3-dihydro-isoindol-2-yl)-piperidine-2,6-dione determination. Total urine was collected and pooled according to the following time intervals post-dose: 0 to 4, 4 to 8, 8 to 12, and 12 to 24 hours. […] Bone marrow aspirations and/or tissue biopsy are also performed at Months 3, 6 and 12 if a patient's paraprotein serum concentration or 24-hour urine protein excretion declined to the next lower level, based on best response criteria.

[5] = Cardiovascular and respiratory function in anesthetized dogs; format: in vivo, Beagle dogs
Source text: Two groups of Beagle dogs (2/sex/group) are used.

metastatic melanoma = test: Treatment of patients with metastatic melanoma; format: in vivo, human
Method: The dose was then increased every seven days to 10 mg/day, 25 mg/day, and 50 mg/day, respectively, for a total of four weeks on therapy.

IL-2 and IFN-γ = test: Augmentation of IL-2 and IFN-γ production following TCR activation of PBMC (IL-2) or T-cells (IFN-γ); format: cell-based
[6] = multiple myeloma patients, preliminary

increase in AUC(0-τ) with 5-fold increase in dose ([1]; Day 1): 3.6 fold
increase in Cmax with five-fold higher dose ([1]; Day 1): 3.2 fold
increase in AUC(0-τ) with 5-fold increase in dose ([1]; Week 4): 2.3 fold
increase in Cmax with five-fold higher dose ([1]; Week 4): 2.2 fold
decline of plasma concentrations after reaching Cmax ([1]; human, in vivo): declined in a monophasic manner
increase in AUC(0-τ) and Cmax values with increasing dose ([1]; human, in vivo): almost a dose proportional increase
AUC(0-inf) ([1]; human, in vivo, 1 mg): 153 ng·h/mL
AUC ([1]; human, in vivo, 1 mg): 134 ng·h/mL
Cmax ([1]; human, in vivo, 1 mg): 15 ng/mL
Vd/F ([1]; human, in vivo, 1 mg): 69.5 L
Tmax ([1]; human, in vivo, 1 mg, tmax): 3.3 h
half-life ([1]; human, in vivo, 1 mg): 7.3 h
AUC(0-inf) ([1]; human, in vivo, 2 mg): 279 ng·h/mL
AUC ([1]; human, in vivo, 2 mg): 250 ng·h/mL
Cmax ([1]; human, in vivo, 2 mg): 24.4 ng/mL
Vd/F ([1]; human, in vivo, 2 mg): 65.3 L
Tmax ([1]; human, in vivo, 2 mg, tmax): 2.7 h
half-life ([1]; human, in vivo, 2 mg): 6.3 h
AUC(0-inf) ([1]; human, in vivo, 5 mg): 593 ng·h/mL
AUC ([1]; human, in vivo, 5 mg): 521 ng·h/mL
Cmax ([1]; human, in vivo, 5 mg): 48.6 ng/mL
Vd/F ([1]; human, in vivo, 5 mg): 87.2 L
Tmax ([1]; human, in vivo, 5 mg, tmax): 2.3 h
half-life ([1]; human, in vivo, 5 mg): 6.5 h
Tmax ([1]; human, in vivo, median Tmax): 2.5 to 2.8 h
Tmax ([1]; human, in vivo, po, tmax): 3.6 h
half-life ([1]; human, in vivo, po): 6.2 h
Structure (SMILES): Nc1cccc2c1C(=O)N(C1CCC(=O)NC1=O)C2=O (stereo not drawn) [Actimid, 4-(Amino)-2-(2,6-dioxo(3-piperidyl))-isoindoline-1,3-dione]

half-live in patients, mean ([4]; human, in vivo): 8 h
half-live in patients, ranging up to ([4]; human, in vivo): up to 17 hours
accumulation with multiple dosing ([4]; in vivo): no evidence of accumulation
shape of concentration profile ([4]; in vivo): double peaks were observed
clearance compared to healthy volunteers [4, 6]: lower
exposure (Cmax and AUC) compared to healthy male volunteers [4, 6]: slightly higher
Structure (SMILES): Nc1cccc2c1CN(C1CCC(=O)NC1=O)C2=O (stereo not drawn) [Revimid, 3-(4-amino-1-oxo-1,3-dihydro-isoindol-2-yl)-piperidine-2,6-dione]
effect on LPS-stimulated production of TNF-α, IL-1β, and IL-6 (TNF-α, IL-1β, and IL-6): dose-dependent inhibition
dose limiting toxicity (DLT) ([2]; first cohort of 3 patients, 5 mg/day, 28 days): without any dose limiting toxicity
tolerability ([2]; second cohort of 3 patients, 10 mg/day): tolerated treatment well
DLTs reported [3]: No DLTs
effect on production of IL-10 (IL-10): increased production
cardiovascular and respiratory changes compared to the vehicle control group ([5]; anesthetized dogs, 2, 10, and 20 mg/kg, infusion through the jugular vein, all doses): minimal
deviations in femoral blood flow, respiratory parameters, and Qtc interval ([5]; common to both the control and treated groups): not considered treatment-related
duration of the arterial blood pressure effect ([5]; low dose): approximately 15 minutes
arterial blood pressure after small increase ([5]; low dose, increase from 94 mmHg, not seen at higher doses): 101 mmHg
patients showing disease stabilization or a partial response (metastatic melanoma; first four weeks of treatment, 5 escalated to 50 mg/day): Five of the 13
duration of response (metastatic melanoma; metastatic melanoma patients): approximately six months
tumor response seen in cutaneous and subcutaneous lesions (metastatic melanoma; metastatic melanoma patients): five
tumor response seen in liver (metastatic melanoma; metastatic melanoma patients): one
tumor response seen in lymph nodes (metastatic melanoma; metastatic melanoma patients): two
times more potent than thalidomide in augmenting the production of IL-2 and IFN-γ (IL-2 and IFN-γ): 50-100 times
